Reference: patent US20050124606A1, “Novel benzothiazine and benzothiadiazine derivatives method for preparing same and pharmaceutical compositions containing same” (priority 2001, published 2005)

tested on: AMPA receptors; assay: Excitatory fluxes induced by AMPA in Xenopus oocytes injected with rat cerebral cortex mRNA (2-electrode voltage-clamp); format: cell-based; settings: rat cortex poly-(A+) mRNA, AMPA 10 μM
Experimental: Study of the Excitatory Fluxes Induced by AMPA in Xenopus oocytes
mRNAs are prepared from cerebral cortex of male Wistar rat by the guanidinium thiocyanate/phenyl/chloroform method. The poly-(A^+) mRNAs are isolated by chromatography on oligo-dT cellulose and injected in an amount of 50 ng per oocyte. The oocytes are left to incubate for 2 to 3 days at 18° C. to allow expression of the receptors and are then stored at from 8 to 10° C.
Electrophysiological recording is carried out in a Plexiglass® chamber at from 20 to 24° C. in OR2 medium (J. Exp. Zool., 1973, 184, 321-334) by the 2-electrode “voltage-clamp” method, a 3rd electrode being placed in the bath to serve as reference.
All the compounds are administered via the incubation medium and the electric current is measured at the end of the period of administration. AMPA is used at a concentration of 10 μM. For each compound studied, the concentration that doubles (EC2X) or quintuples (EC5X) the intensity of the current induced by AMPA alone (5 to 50 nA) is determined.

Row | SMILES | EC2X (concentration that doubles the intensity of the current induced by AMPA alone) [µM] | EC5X (concentration that quintuples the intensity of the current induced by AMPA alone) [µM]
1 | O=S1(=O)NC2CCCN2c2ccc(Oc3ccccc3)cc21 (single isomer, unassigned) [Example 3, 7-Phenoxy-2,3,3a,4-tetrahydro-1H-pyrrolo[2,1-c][1,2,4]-benzothiadiazine 5,5-dioxide, α Isomer] | 0.8 | 3.6
2 | CCN1CNS(=O)(=O)c2cc(Oc3ccccc3)ccc21 [Example 29, 4-Ethyl-7-phenoxy-3,4-dihydro-2H-1,2,4-benzothiadiazine 1,1-dioxide] | 1.4 | 4.5

tested on: not given; assay: not given; settings: not given

Row | melting point [°C] | SMILES
3 | 242 to 245 | N#Cc1ccc(Oc2ccc3c(c2)S(=O)(=O)NC2CCCN32)cc1 (centres unmarked) [Example 5, 4-[(5,5-Dioxido-2,3,3a,4-tetrahydro-1H-pyrrolo[2,1-c][1,2,4]benzothiadiazin-7-yl)oxy]benzonitrile]
4 | 227 to 230 | N#Cc1cccc(Oc2ccc3c(c2)S(=O)(=O)NC2CCCN32)c1 (centres unmarked) [Example 6, 3-[(5,5-Dioxido-2,3,3a,4-tetrahydro-1H-pyrrolo [2,1-c][1,2,4]benzothiadiazin-7-yl)oxy]benzonitrile]
5 | 222 to 226 | Cc1ccc(Oc2ccc3c(c2)S(=O)(=O)NC2CCCN32)cc1 (centres unmarked) [Example 7, 7-(4-Methylphenoxy)-2,3,3a,4-tetrahydro-1H-pyrrolo[2,1-c][1,2,4]-benzothiadiazine 5,5-dioxide]
6 | 190 to 195 | Cc1cccc(Oc2ccc3c(c2)S(=O)(=O)NC2CCCN32)c1 (centres unmarked) [Example 8, 7-(3-Methylphenoxy)-2,3,3a,4-tetrahydro-1H-pyrrolo[2,1-c][1,2,4]-benzothiadiazine 5,5-dioxide]
7 | 188 to 191 | COc1ccc(Oc2ccc3c(c2)S(=O)(=O)NC2CCCN32)cc1 (centres unmarked) [Example 9, 7-(4-Methoxyphenoxy)-2,3,3a,4-tetrahydro-1H-pyrrolo[2,1-c][1,2,4]-benzothiadiazine 5,5-dioxide]
8 | 175 to 176 | COc1ccccc1Oc1ccc2c(c1)S(=O)(=O)NC1CCCN21 (centres unmarked) [Example 13, 7-(2-Methoxyphenoxy)-2,3,3a,4-tetrahydro-1H-pyrrolo[2,1-c][1,2,4]-benzothiadiazine 5,5-dioxide]
9 | 201 to 204 | O=[N+]([O-])c1cccc(Oc2ccc3c(c2)S(=O)(=O)NC2CCCN32)c1 (centres unmarked) [Example 15, 7-(3-Nitrophenoxy)-2,3,3a,4-tetrahydro-1H-pyrrolo[2,1-c][1,2,4]-benzothiadiazine 5,5-dioxide]
10 | 201 to 203 | O=S1(=O)NC2CCCN2c2ccc(Oc3cc(C(F)(F)F)cc(C(F)(F)F)c3)cc21 (centres unmarked) [Example 16, 7-[3,5-Di(trifluoromethyl)phenoxy]-2,3,3a,4-tetrahydro-1H-pyrrolo[2,1-c][1,2,4]benzothiadiazine 5,5-dioxide]
11 | 194 to 198 | O=S1(=O)NC2CCCN2c2ccc(Oc3cccc(Cl)c3)cc21 (centres unmarked) [Example 17, 7-(3-Chlorophenoxy)-2,3,3a,4-tetrahydro-1H-pyrrolo[2,1-c][1,2,4]-benzothiadiazine 5,5-dioxide]
12 | 150 | CCOc1cccc(Oc2ccc3c(c2)S(=O)(=O)NC2CCCN32)c1 (centres unmarked) [Example 18, 7-(3-Ethoxyphenoxy)-2,3,3a,4-tetrahydro-1H-pyrrolo[2,1-c][1,2,4]-benzothiadiazine 5,5-dioxide]
13 | 175 | O=S1(=O)NC2CCCN2c2ccc(Oc3cccc(OC(F)(F)F)c3)cc21 (centres unmarked) [Example 19, 7-(3-Trifluoromethoxyphenoxy)-2,3,3a,4-tetrahydro-1H-pyrrolo-[2,1-c][1,2,4]benzothiadiazine 5,5-dioxide]
14 | 227 to 229 | O=S1(=O)NC2CCCN2c2ccc(Oc3cccc4ccccc34)cc21 (centres unmarked) [Example 20, 7-(1-Naphthyloxy)-2,3,3a,4-tetrahydro-1H-pyrrolo[2,1-c][1,2,4]-benzothiadiazine 5,5-dioxide]
15 | 234 to 236 | O=S1(=O)NC2CCCN2c2ccc(Oc3ccc4ccccc4c3)cc21 (centres unmarked) [Example 21, 7-(2-Naphthyloxy)-2,3,3a,4-tetrahydro-1H-pyrrolo[2,1-c][1,2,4]-benzothiadiazine 5,5-dioxide]
16 | 179 to 182 | O=S1(=O)NC2CCCN2c2ccc(Oc3cccc(OCc4ccccc4)c3)cc21 (centres unmarked) [Example 22, 7-(3-Benzyloxyphenoxy)-2,3,3a,4-tetrahydro-1H-pyrrolo-[2,1-c][1,2,4]benzothiadiazine 5,5-dioxide]
17 | 223 to 227 | COC(=O)c1cccc(Oc2ccc3c(c2)S(=O)(=O)NC2CCCN32)c1 (centres unmarked) [Example 26, Methyl 3-[(5,5-dioxido-2,3,3a,4-tetrahydro-1H-pyrrolo[2,1-c][1,2,4]-benzothiadiazin-7-yl)oxy]benzoate]
18 | 179 to 181 | CCN1CNS(=O)(=O)c2cc(Oc3ccccc3)ccc21 [Example 29, 4-Ethyl-7-phenoxy-3,4-dihydro-2H-1,2,4-benzothiadiazine 1,1-dioxide]
19 | 143 to 145 | CCCN1CNS(=O)(=O)c2cc(Oc3ccccc3)ccc21 [Example 30, 4-Propyl-7-phenoxy-3,4-dihydro-2H-1,2,4-benzothiadiazine 1,1-dioxide]
20 | 143 to 146 | CCN1CNS(=O)(=O)c2cc(Oc3cccc(C#N)c3)ccc21 [Example 31, 3-[(4-Ethyl-1,1-dioxido-3,4-dihydro-2H-1,2,4-benzothiadiazin-7-yl)oxy]benzonitrile]
21 | 91 to 93 | CCN1CNS(=O)(=O)c2cc(Oc3cccc(OC)c3)ccc21 [Example 32, 4-Ethyl-7-(3-methoxyphenoxy)-3,4-dihydro-2H-1,2,4-benzothiadiazine 1,1-dioxide]
22 | 160 | CSc1cccc(Oc2ccc3c(c2)S(=O)(=O)NC2CCCN32)c1 (centres unmarked) [Example 34, 7-(3-Methylsulphanylphenoxy)-2,3,3a,4-tetrahydro-1H-pyrrolo-[2,1-c][1,2,4]benzothiadiazine 5,5-dioxide]
23 | 143 to 144 | CCc1cccc(Oc2ccc3c(c2)S(=O)(=O)NC2CCCN32)c1 (centres unmarked) [Example 35, 7-(3-Ethylphenoxy)-2,3,3a,4-tetrahydro-1H-pyrrolo [2,1-c][1,2,4]-benzothiadiazine 5,5-dioxide]
24 | 171 to 172 | CC(C)c1cccc(Oc2ccc3c(c2)S(=O)(=O)NC2CCCN32)c1 (centres unmarked) [Example 36, 7-(3-Isopropylphenoxy)-2,3,3a,4-tetrahydro-1H-pyrrolo[2,1-c][1,2,4]-benzothiadiazine 5,5-dioxide]
25 | 201 | O=S1(=O)NC2CCCN2c2ccc(Oc3cccc(F)c3)cc21 (centres unmarked) [Example 37, 7-(3-Fluorophenoxy)-2,3,3a,4-tetrahydro-1H-pyrrolo [2,1-c][1,2,4]-benzothiadiazine 5,5-dioxide]
26 | 193 to 195 | O=S1(=O)NC2CCCN2c2ccc(Oc3cccc(Br)c3)cc21 (centres unmarked) [Example 38, 7-(3-Bromophenoxy)-2,3,3a,4-tetrahydro-1H-pyrrolo[2,1-c][1,2,4]-benzothiadiazine 5,5-dioxide]
27 | 72 to 75 | CCN1CNS(=O)(=O)c2cc(Oc3cccc(C)c3)ccc21 [Example 57, 4-Ethyl-7-(3-methylphenoxy)-3,4-dihydro-2H-[1,2,4]benzothiadiazine 1,1-dioxide]
28 | 165 to 168 | CCN1CNS(=O)(=O)c2cc(Oc3cccc(NS(C)(=O)=O)c3)ccc21 [Example 58, N-{3-[(4-Ethyl-1,1-dioxido-3,4-dihydro-2H-1,2,4-benzothiadiazin-7-yl)oxy]phenyl}methanesulphonamide]
29 | 164 to 166 | CCN1CNS(=O)(=O)c2cc(Oc3cccc(C(C)=O)c3)ccc21 [Example 59, 1-{3-[(4-Ethyl-1,1-dioxido-3,4-dihydro-2H-1,2,4-benzothiadiazin-7-yl)oxy]phenyl}ethanone]
30 | 109 to 111 | CCN1CNS(=O)(=O)c2cc(Oc3ccc(C)c(C)c3)ccc21 [Example 61, 7-(3,4-Dimethylphenoxy)-4-ethyl-3,4-dihydro-2H-1,2,4-benzothiadiazine 1,1-dioxide]
